Consider 1 substance from patent publication US9012594B2, “Catalyst and byproduct-free native chemical ligation using cyclic thioester precursors” (Northwestern University, priority 2010, dated 2015).

In this test the test system is cells. Kind of test: Cell adhesion on peptide-functionalized hydrogel. The format is cell-based. Conditions: peptide at 1% of the total cysteine groups used for hydrogel formation. The text has this:
The methods of macromonomer and hydrogel formation described herein provide biocompatible macromonomers and hydrogels which are easily modified with bioactive materials to improve functions of encapsulated cells such as supporting cell growth, and the development and secretion of cellular products upon biological stimulus. By “bioactive” we mean a substance that has or cause an effect on in biological samples. In this work, the macromonomers and hydrogels were further functionalized with peptides, although other bioactive materials may be used, such as proteins, growth factors, DNA, RNA. Peptides were functionalized through the Michael addition reaction between 4A-PEG-Cys and maleimide-terminated peptides prior to the cross-linking between 4A-PEG-Cys and 4A-PEG-CThE. This reaction is quantitative and fast, providing a good control over the density of peptides attached to the resulted hydrogel. Such strategy works well, when the physiological effects of peptides on cells can be achieved at low immobilization density.

On to “GRGDSPG (maleimide-GRGDSPG-NH2; also: conjugated to 4A-PEG-Cys) [cell adhesion peptide, maleimide-terminated, attached to 4A-PEG-Cys by Michael addition]”, for which the cell adhesion result is “sufficient to support cell adhesion”.
